Laboratory results: patent publication EP1068184B1, “N-ARYLOXYETHYLAMINE DERIVATIVES FOR THE TREATMENT OF DEPRESSION” (Wyeth, priority 1998, dated 1999)

Experiments:
[1] = target: T1, human 5-HT1A receptor subtype (Homo sapiens, UniProt P08908); assay: 5-HT1A receptor binding assay with [3H]8-OH-DPAT on membranes of 5-HT1A.CHO cells; conditions: [3H]8-OH-DPAT 1.5 nM, CHO cell membranes
T1 construct: expressed in transfected cells
T1 sequence (P08908 1-422): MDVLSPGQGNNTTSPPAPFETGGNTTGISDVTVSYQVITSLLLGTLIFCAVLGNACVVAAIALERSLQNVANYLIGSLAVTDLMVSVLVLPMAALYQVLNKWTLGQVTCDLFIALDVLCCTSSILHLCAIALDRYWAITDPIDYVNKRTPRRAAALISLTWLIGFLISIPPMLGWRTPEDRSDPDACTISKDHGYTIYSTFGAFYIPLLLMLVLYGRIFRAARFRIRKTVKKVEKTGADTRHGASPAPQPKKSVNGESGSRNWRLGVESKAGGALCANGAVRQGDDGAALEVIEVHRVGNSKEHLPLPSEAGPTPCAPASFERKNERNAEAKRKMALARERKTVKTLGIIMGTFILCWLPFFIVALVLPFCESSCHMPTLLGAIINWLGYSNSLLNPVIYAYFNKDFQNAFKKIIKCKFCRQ
Method: (§1) The PCR cloning of the human 5-HT1A receptor subtype from a human genomic library has been described previously Chanda et al., Mol. Pharmacol., 43:516 (1993). A stable Chinese hamster ovary cell line expressing the human 5-HT1A receptor subtype (5-HT1A.CHO cells) was employed throughout this study. Cells were maintained in DMEM supplemented with 10% foetal calf serum, non-essential amino acids and penicillin/ streptomycin.
Cells were grown to 95-100% confluency as a monolayer before membranes were harvested for binding studies. Cells were gently scraped from the culture plates, transferred to centrifuge tubes, and washed twice by centrifugation (2000 rpm for 10 min., 4°C) in buffer (50 mM Tris; pH 7.5). The resulting pellets were aliquoted and placed at -80°C. On the day of assay, the cells were thawed on ice, and resuspended in buffer. Studies were conducted using [^3H]8-OH-DPAT as the radioligand. The binding assay was performed in 96 well microtiter plates in a final total volume of 250 µL of buffer. Competition experiments were performed by using 7 concentrations of unlabelled drug and a final ligand concentration of 1.5 nM . Non-specific binding was determined in the presence of 10 µM 5HT. Saturation analysis was conducted by using [^3H]8-OH-DPAT at concentrations ranging from 0.3-30 nM. Following a 30 minute incubation at room temperature, the reaction was terminated by the addition of ice cold buffer and rapid filtration using a M-96 Brandel Cell Harvester (Gaithersburg, MD) through a GF/B filter presoaked for 30 minutes in 0.5% polyethyleneimine.

serotonin transporter = target: T2, serotonin transporter (Rattus norvegicus, UniProt P31652); assay: serotonin transporter affinity, 3H-paroxetine binding to frontal cortical membranes; set-up: species or system male Sprague-Dawley rats; conditions: 3H-paroxetine 0.1 nM, rat frontal cortical membranes; read-out: ST (Ki)
T2 construct: frontal cortical membranes prepared from male Sprague-Dawley rats; from tissue; host or cells: rat frontal cortex membranes
T2 sequence (P31652 whole entry): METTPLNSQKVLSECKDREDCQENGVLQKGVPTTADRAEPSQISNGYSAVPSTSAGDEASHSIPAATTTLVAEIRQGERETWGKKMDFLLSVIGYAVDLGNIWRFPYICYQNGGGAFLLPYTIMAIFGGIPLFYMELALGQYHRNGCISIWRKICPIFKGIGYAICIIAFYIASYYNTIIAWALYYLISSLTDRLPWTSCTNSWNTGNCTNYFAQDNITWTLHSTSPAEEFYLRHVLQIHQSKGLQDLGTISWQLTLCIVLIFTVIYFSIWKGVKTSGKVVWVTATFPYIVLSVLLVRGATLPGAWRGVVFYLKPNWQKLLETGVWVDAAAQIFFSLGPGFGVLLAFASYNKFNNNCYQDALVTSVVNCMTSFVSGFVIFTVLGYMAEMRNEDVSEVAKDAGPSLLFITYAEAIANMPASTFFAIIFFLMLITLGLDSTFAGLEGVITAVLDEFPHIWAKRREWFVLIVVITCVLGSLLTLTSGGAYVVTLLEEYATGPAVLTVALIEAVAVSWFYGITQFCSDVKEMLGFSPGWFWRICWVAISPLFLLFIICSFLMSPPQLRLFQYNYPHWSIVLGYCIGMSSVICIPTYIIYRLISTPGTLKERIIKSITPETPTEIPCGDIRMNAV
Method: Briefly, frontal cortical membranes prepared from male Sprague-Dawley rats were incubated with ^3H-paroxetine (0.1 nM) for 60 min at 25°C. All tubes also contained either vehicle, test compound (one to eight concentrations), or a saturating concentration of fluoxetine (10 µM) to define specific binding. All reactions are terminated by the addition of ice cold Tris buffer followed by rapid filtration using a Tom Tech filtration device to separate bound from free ^3H-paroxetine.

5-HT1A cloned receptor = target: T3, 5-HT1A cloned receptor (Homo sapiens, UniProt P08908); assay: [35S]-GTPγS binding assay on 5-HT1A cloned receptor membrane fragments; type: biochemical; conditions: maximum agonist response defined by excess 8-OH-DPAT
T3 construct: expressed in transfected cells
T3 sequence (P08908 1-422): T1 sequence (P08908 1-422)
Method: The [^35S]-GTPγS binding assay was similar to that used by Lazareno and Birdsall, Br. J. Pharmacol. 109:1120 (1993). Briefly, 5-HT1A cloned receptor membrane fragments (as used for 5-HT1A receptor binding assays) were stored at -70 °C until needed. When needed, membranes were rapidly thawed, centrifuged at 40,000 x g for 10 minutes and resuspended at 4 °C for 10 minutes in assay buffer (25 mM HEPES, 3 mM MgCl2, 100 mM NaCI, 1 mM EDTA, 10 uM GDP, […] DTT, pH 8.0). These membranes were then incubated for 30 min at 30 °C with [^35S]GTPgS (1 nM) in the presence of vehicle, test compound (one to eight concentrations), or excess 8-OH-DPAT to define maximum agonist response. All reactions are terminated by the addition of ice cold Tris buffer followed by rapid filtration using a Tom Tech® filtration device to separate bound from free [^35S]GTPgS. Agonists produce an increase in the amount of [^35S]GTPgS bound whereas antagonists produce no increase in binding. Bound radioactivity was counted and analyzed as above.

[2] = target: T1, human 5-HT1A receptor subtype; assay: cAMP formation in forskolin-treated cells (cAMP SPA assay); type: cell-based; conditions: forskolin 1 uM, 10 min at 37°C
Method: as §1
The following assays were performed by incubating the cells with DMEM containing 25 mM HEPES, 5 mM theophylline and 10 µM pargyline for a period of 20 minutes at 37°C. Functional activity was assessed by treating the cells with forskolin (1 uM final concentration) followed immediately by test compound (6 concentrations) for an additional 10 min at 37°C. In separate experiments, 6 concentrations of antagonist were preincubated for 20 min prior to the addition of 10 nM 8-OH-DPAT and forskolin. The reaction was terminated by removal of the media and addition of 0.5 ml ice cold assay buffer. Plates were stored at -20°C prior to assessment of cAMP formation by a cAMP SPA assay (Amersham).

Structure (SMILES)	Ki [1] [nM]	Ki (serotonin transporter) [nM]	Emax (5-HT1A cloned receptor) [%]	Emax [2] [%]
Fc1cc2c(c(OCCN[C@H]3CC[C@H](c4c[nH]c5ccc(F)cc54)CC3)c1)OCCC2 [Example 5b, [2-(6-Fluoro-chroman-8-yloxy)-ethyl]-[(1,4-trans)-4-(5-fluoro-1H -indol-3-yl)-cyclohexyl]-amine]	19.4	1.52	22	0
COc1ccc(F)cc1OCCN[C@H]1CC[C@H](c2c[nH]c3cc(F)ccc32)CC1 [Example 2b, [(1,4-trans)-4-(6-Fluoro-1H-indol-3-yl)-cyclohexyl]-[2-(5-fluoro-2-methoxy-phenoxy)-ethyl]-amine]	47.8	0.42	0	0
Fc1ccc2[nH]cc([C@H]3CC[C@H](NCCOc4cccc5c4OCCO5)CC3)c2c1 [Example 4b]	18.9	1.12	–	61
Fc1ccc2[nH]cc([C@H]3CC[C@H](NCCOc4cccc5[nH]ccc45)CC3)c2c1 [Example 3b]	1.08	2.5	62	90
N#Cc1ccc2[nH]cc([C@H]3CC[C@H](NCCOc4cc(F)cc5c4OCCC5)CC3)c2c1 [Example 5f, 3-{(1,4-trans)-4-[2-(6-Fluoro-chroman-8-yloxy)-ethylamino]-cyclohexyl}-1H-indole-5-carbonitrile]	10.1	2.6	30	0
